# From patent publication US20220160739A1, “METHODS FOR TREATING SUBJECTS WITH CHRONIC KIDNEY DISEASE” (Janssen Pharmaceutica NV, priority 2019, published 2022)
# What was measured:
# [1] = test system: patients with type 2 diabetes mellitus (T2DM), Stage 2 or 3 chronic kidney disease (CKD) and macroalbuminuria; assay: Randomized, double-blind, placebo-controlled study of canagliflozin: efficacy (renal and CV endpoints, HbA1c, body weight, blood pressure); type: in vivo, human
# Description: (§1) This was a randomized, double-blind, event-driven, placebo-controlled, parallel-group, 2-arm, multicenter study to evaluate the effects of canagliflozin relative to placebo on progression to doubling of serum creatinine, end-stage kidney disease (ESKD), renal or cardiovascular (CV) death in patients with type 2 diabetes mellitus (T2DM), Stage 2 or 3 chronic kidney disease (CKD) and macroalbuminuria, who were receiving standard of care including a maximum tolerated labeled daily dose of an angiotensin-converting enzyme inhibitor (ACEi) or angiotensin receptor blocker (ARB). […] The safety objective was to assess the overall safety and tolerability of canagliflozin.
# Randomization included a 1:1 ratio to canagliflozin 100 mg or matching placebo, stratified by screening estimated glomerular filtration rate (eGFR) [≥30 to less than 45, ≥45 to less than 60, ≥60 to less than 90 mL/min/1.73 m^2]. The primary efficacy composite endpoint was the time to the first occurrence of doubling of serum creatinine, ESKD, and renal or CV death. The major secondary efficacy endpoints (tested in the following hierarchical order) included: • Composite of CV death and hospitalized heart failure • Composite of CV death, non-fatal MI, and non-fatal stroke (i.e., 3-point “MACE”) • Hospitalized heart failure • Composite of doubling of serum creatinine, ESKD, and renal death • CV death • All-cause death • Composite of CV death, non-fatal MI, non-fatal stroke, hospitalized heart failure, and hospitalized unstable angina
# A planned interim analysis was conducted at 413 primary endpoints and the IDMC subsequently recommended to stop the study early for efficacy based on pre-specified stopping criteria.
# The primary analysis was performed in the Intent-To-Treat (ITT) analysis set (i.e., all randomized subjects through end of study) using a stratified Cox proportional hazard model including treatment as the explanatory variable and stratified by screening eGFR. Secondary endpoints were similarly analyzed.
# As a result of stopping at the interim analysis, the primary endpoint was tested at a two-sided significance level of 0.022 based on the alpha spending function, whereas secondary endpoints were tested at 0.038.
# Analyses were performed to assess the impact of adjusting for postbaseline measurements of HbA1c and systolic blood pressure in the primary efficacy analysis. A series of proportional hazard regression models which included postbaseline HbA1c and systolic blood pressure measurements as time-varying covariates were fit. Because changes in HbA1c have a delayed effect on cardiovascular risk, several models were constructed. In each model, HbA1c was evaluated first using the single coincident value, a single lagged value, and then as a running mean average value. Single coincident systolic blood pressure measurements were used for all analyses.
# [2] = test system: patients with type 2 diabetes mellitus (T2DM), Stage 2 or 3 chronic kidney disease (CKD) and macroalbuminuria; assay: Randomized, double-blind, placebo-controlled study of canagliflozin: safety and tolerability (adverse events); type: in vivo
# Description: as §1, with “canagliflozin. […]” for “canagliflozin.”
# Treatment-emergent safety analyses and summaries were presented using the On-Treatment analysis set (i.e., all treated subjects through 30 days after last dose), whereas analyses of amputation, fracture, and malignancy were performed using the On-Study analysis set (i.e., all treated subjects through end of study).
# Safety analyses were performed using either the On-Treatment analysis set (treated subjects up to 30 days of last dose) or the On-Study analysis set (treated subjects through the end of study).
# [3] = canagliflozin compared to placebo, ITT
# [4] = canagliflozin minus placebo, end of treatment
# [5] = Cox proportional hazards model, On-Study
smiles,measurement,setting,value
Cc1ccc(C2OC(CO)C(O)C(O)C2O)cc1Cc1ccc(-c2ccc(F)cc2)s1 (stereo not shown) [Canagliflozin],HbA1c placebo-subtracted difference of LS means for change from baseline,[1]; 30-45 eGFR stratum,0.03
same,HbA1c placebo-subtracted difference of LS means for change from baseline,[1]; 45-60 eGFR stratum,−0.18
same,HbA1c placebo-subtracted difference of LS means for change from baseline,[1]; 60 to <90 eGFR stratum,−0.21
same,"Kaplan-Meier plot, primary composite endpoint: initial separation","[1]; FIG. 1, maintained across the entire study",52 Week
same,"Treatment HR for the primary efficacy outcome, adjusted for time-varying HbA1c and systolic blood pressure",[1]; HbA1c Concurrent in the Cox model,0.724
same,"Treatment HR for the primary efficacy outcome, adjusted for time-varying HbA1c and systolic blood pressure",[1]; HbA1c Lagged By 1 Visit,0.737
same,"Treatment HR for the primary efficacy outcome, adjusted for time-varying HbA1c and systolic blood pressure",[1]; HbA1c Running Mean,0.740
same,All-Cause Mortality (%),[1]; ITT,(7.6) %
same,All-Cause Mortality EVRT,[1]; ITT,29.04 per 1000 patient-years
same,All-Cause Mortality n/N,[1]; ITT,168/2202
same,Composite of CV Death/NFMI/NF Stroke/HHF/HUSA (%),[1]; ITT,(12.4) %
same,Composite of CV Death/NFMI/NF Stroke/HHF/HUSA EVRT,[1]; ITT,49.35 per 1000 patient-years
same,Composite of CV Death/NFMI/NF Stroke/HHF/HUSA n/N,[1]; ITT,273/2202
same,Composite of DoSC/ESKD/Renal Death (%),[1]; ITT,(6.9) %
same,Composite of DoSC/ESKD/Renal Death EVRT,[1]; ITT,26.99 per 1000 patient-years
same,Composite of DoSC/ESKD/Renal Death n/N,[1]; ITT,153/2202
same,HHF (%),[1]; ITT,(4.0) %
same,HHF (hospitalized heart failure) n/N,[1]; ITT,89/2202
same,HHF EVRT,[1]; ITT,15.65 per 1000 patient-years
same,MACE (%),[1]; ITT,(9.9) %
same,MACE EVRT,[1]; ITT,38.71 per 1000 patient-years
same,MACE n/N,"[1]; ITT, CV death, non-fatal MI, non-fatal stroke",217/2202
same,Composite of CV Death/HHF (%),"[1]; ITT, canagliflozin 100 mg",(8.1) %
same,Composite of CV Death/HHF EVRT,"[1]; ITT, canagliflozin 100 mg",31.47 per 1000 patient-years
same,Composite of CV Death/HHF n/N,"[1]; ITT, canagliflozin 100 mg",179/2202
same,Doubling of Serum Creatinine EVRT,"[1]; ITT, canagliflozin 100 mg",20.73 per 1000 patient-years
same,ESKD EVRT,"[1]; ITT, canagliflozin 100 mg",20.37 per 1000 patient-years
same,Primary Composite Endpoint EVRT (event rate),"[1]; ITT, canagliflozin 100 mg",43.21 per 1000 patient-years
same,Renal Death EVRT,"[1]; ITT, canagliflozin 100 mg",0.35 per 1000 patient-years
same,"Primary composite endpoint HR, supportive analysis","[1]; On-Treatment analysis set, vs placebo",0.64
same,Doubling of Serum Creatinine HR (95% CI),[1]; [3],"0.60 (0.48, 0.76)"
same,ESKD HR (95% CI),[1]; [3],"0.68 (0.54, 0.86)"
same,"Body weight least-squares mean difference, change from baseline",[1]; [4],−1.72%
same,"HbA1c least-squares mean difference, change from baseline",[1]; [4],−0.13%
same,"Systolic blood pressure least-squares mean difference, change from baseline",[1]; [4],−2.81 mmHg
same,Reduction of risk of the primary composite endpoint,"[1]; compared to placebo, ITT",30%
same,Reduction of risk of certain primary endpoints,[1]; on top of current standard of care that includes ACEi or ARB therapy,about 25%
same,"Exploratory hard composite of ESKD, renal death and CV death HR",[1]; vs placebo,0.73
same,Composite of CV death and hospitalized heart failure HR,"[1]; vs placebo, ITT",0.69
same,Composite of CV death and hospitalized heart failure risk reduction,"[1]; vs placebo, ITT",31%
same,"Composite of doubling of serum creatinine, ESKD, and renal death HR","[1]; vs placebo, ITT",0.66
same,"Composite of doubling of serum creatinine, ESKD, and renal death risk reduction","[1]; vs placebo, ITT",34%
same,Hospitalization for heart failure HR,"[1]; vs placebo, ITT",0.61
same,Hospitalization for heart failure risk reduction,"[1]; vs placebo, ITT",39%
same,MACE HR,"[1]; vs placebo, ITT",0.80
same,MACE risk reduction,"[1]; vs placebo, ITT",20%
same,Adjudicated fracture: HR (vs. Placebo),[2]; [5],0.98
same,Atraumatic lower limb amputation: HR (vs. Placebo),[2]; [5],1.11
same,Final vital status: Alive n (%),"[2]; ITT analysis set, N = 2202",2030 (92.2)
same,Final vital status: Died n (%),"[2]; ITT analysis set, N = 2202",168 (7.6)
same,Adjudicated fracture: IRD (minus Placebo),[2]; On-Study,−0.29 /1000 subject-years
same,Adjudicated fracture: incidence rate,[2]; On-Study,11.80 /1000 subject-years
same,Adjudicated fracture: number of events,[2]; On-Study,80
same,Atraumatic lower limb amputation: IRD (minus Placebo),[2]; On-Study,1.16 /1000 subject-years
same,Atraumatic lower limb amputation: incidence rate,[2]; On-Study,12.34 /1000 subject-years
